{
  "source": "patent US20150190509A1",
  "about": "“RESIN[…]” (MESTEX AG, priority 2012, published 2015)",
  "key": {"[1]": {"test": "loss of RTX on contact with polymer (polypropylene) syringe", "type": "physicochemical", "conditions": "diluted ready-for-use solution (buffer solution and hyaluronic acid), kept in polypropylene syringe for 10 minutes", "from_the_text": "An additional positive property of the resiniferatoxin solution according to the invention is the fact that the substance is stabilized even in a diluted, ready-for-use solution (i.e. diluted with a buffer solution and hyaluronic acid), so that it can also be used in combination with commercial, polymer plastic syringes which are usually produced from polypropylene, polyethylene, polyurethane and other materials. To date, it has been considered absolutely necessary for the RTX solution not to come in contact with the polymer, because it binds immediately to it."}, "[2]": {"test": "storage stability of RTX dissolved in ethanol with or without protective gas", "type": "physicochemical", "method": "Under these circumstances a loss of the RTX dissolved in ethanol occurs, on the order of magnitude of 10% in 3 months. However, if the RTX is dissolved together with argon in ethanol or in other body-compatible solvents, the loss at ambient temperature remains very low. As described in further detail below, RTX in the resiniferatoxin solution according to the invention even loses its undesired tendency to cling to polymeric surfaces."}},
  "data": [
    {"smiles": "C=C(C)[C@]12C[C@@H](C)[C@@]34O[C@](Cc5ccccc5)(O[C@@H]1[C@@H]3C=C(COC(=O)Cc1ccc(O)c(OC)c1)C[C@]1(O)C(=O)C(C)=C[C@@H]41)O2", "note": "[RTX, Resiniferatoxin]", "values": [
      {"measurement": "loss of RTX in polypropylene syringe", "setting": "[1]", "value": "without measurable loss"},
      {"measurement": "RTX content (stability of the dissolved RTX) over months", "setting": "[2]; RTX dissolved in ethanol at 5° C. with 0.07 wt% argon, second measurement series", "value": 100, "unit": "%"},
      {"measurement": "RTX content (stability of the dissolved RTX) over months", "setting": "[2]; RTX dissolved in ethanol at 5° C. without additional protective gas (argon), first measurement series", "value": "continuous decrease"},
      {"measurement": "RTX content (stability of the dissolved RTX) over months", "setting": "[2]; RTX dissolved in ethanol at 25° C. with 0.07 wt % argon, third measurement series", "value": 100, "unit": "%"},
      {"measurement": "loss of RTX at ambient temperature", "setting": "[2]; RTX dissolved together with argon in ethanol or other body-compatible solvents, ambient temperature", "value": "very low"},
      {"measurement": "loss of the RTX dissolved in ethanol", "setting": "[2]; frozen RTX stored under protective gas (argon), then dissolved with ethanol, in 3 months", "value": "~10", "unit": "%"}
    ]}
  ]
}
